≈ marks a conversion by molar mass, not a printed value.
Columns and labels:
Assay type in all cases: cell-based
[1] = tested on: STAPHYLOCOCCUS AUREUS ATCC 6538P; assay: In vitro antibacterial activity, MIC, BHI agar dilution; settings: S. aureus ATCC 6538P, 35-37° C., 20 to 24 hours, unit assumed
[2] = tested on: STAPHYLOCOCCUS AUREUS A5177; assay: as above; settings: S. aureus A5177, unit assumed
[3] = tested on: STAPHYLOCOCCUS AUREUS A-5278; assay: as above; settings: S. aureus A-5278, unit assumed
[4] = tested on: STAPHYLOCOCCUS AUREUS CMX 642A; assay: as above; settings: S. aureus CMX 642A, unit assumed
[5] = tested on: STAPHYLOCOCCUS AUREUS NCTC10649M; assay: as above; settings: S. aureus NCTC10649M, unit assumed
[6] = tested on: STAPHYLOCOCCUS AUREUS CMX 553; assay: as above; settings: S. aureus CMX 553, unit assumed
[7] = tested on: STAPHYLOCOCCUS AUREUS 1775; assay: as above; settings: S. aureus 1775, unit assumed
[8] = tested on: STAPHYLOCOCCUS EPIDERMIDIS 3519; settings: S. epidermidis 3519; BHI agar; unit assumed
EN[…] ATCC 8043 = assay: In vitro antibacterial activity, MIC, BHI agar dilution; settings: E. faecium ATCC 8043, unit assumed
Procedure, shortened: (§1)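 BHI agar dilution: twelve plates with successive compound dilutions, inoculated by replicator with 1:100 culture dilutions (1:10 for slow growers such as Micrococcus and Streptococcus), 20 to 24 hours at 35-37° C. MIC was the lowest concentration giving no growth, slight haze or sparse isolated colonies versus drug-free control; erythromycin A as class reference.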

M[…] ATCC 4698 = assay: as above; settings: M. luteus ATCC 4698, unit assumed
Procedure, shortened: as §1

M[…] ATCC 9341 = assay: as above; settings: M. luteus ATCC 9341, unit assumed
Procedure, shortened: as §1

STR[…] 508 = assay: as above; settings: S. agalactiae CMX 508, unit assumed
Procedure, shortened: as §1

[9] = tested on: STREPTOCOCCUS BOVIS A-5169; assay: as above; settings: S. bovis A-5169, unit assumed
[10] = tested on: STREPTOCOCCUS PYOGENES EES61; assay: as above; settings: S. pyogenes EES61, unit assumed
[11] = tested on: STREPTOCOCCUS PYOGENES 930; assay: as above; settings: S. pyogenes 930, unit assumed
[12] = tested on: STREPTOCOCCUS PYOGENES PIU 2548; assay: as above; settings: S. pyogenes PIU 2548, unit assumed
ESCHERICHIA COLI JUHL = settings: E. coli JUHL; BHI agar; unit assumed
ESCHERICHIA COLI SS = assay: In vitro antibacterial activity, MIC, BHI agar dilution; settings: E. coli SS, unit assumed
ESCHERICHIA COLI DC-2 = assay: as above; settings: E. coli DC-2, unit assumed
ESCHERICHIA COLI H560 = assay: as above; settings: E. coli H560, unit assumed
ESCHERICHIA COLI KNK 437 = settings: E. coli KNK 437; BHI agar; unit assumed
[13] = tested on: ENTEROBACTER AEROGENES ATCC 13048; assay: In vitro antibacterial activity, MIC, BHI agar dilution; settings: E. aerogenes ATCC 13048, unit assumed
[14] = tested on: KLEBSIELLA PNEUMONIAE ATCC 8045; assay: as above; settings: K. pneumoniae ATCC 8045, unit assumed
[15] = tested on: PROVIDENCIA STUARTII CMX 640; settings: P. stuartii CMX 640; BHI agar; unit assumed
[16] = tested on: PSEUDOMONAS AERUGINOSA BMH10; assay: In vitro antibacterial activity, MIC, BHI agar dilution; settings: P. aeruginosa BMH10, unit assumed
[17] = tested on: PSEUDOMONAS AERUGINOSA 5007; assay: as above; settings: P. aeruginosa 5007, unit assumed
[18] = tested on: PSEUDOMONAS AERUGINOSA K799/WT; assay: as above; settings: P. aeruginosa K799/WT, unit assumed
[19] = tested on: PSEUDOMONAS AERUGINOSA K799/61; assay: as above; settings: P. aeruginosa K799/61, unit assumed
PSEUDOMONAS CEPACIA 296I = assay: as above; settings: P. cepacia 296I, unit assumed
[20] = tested on: ACINETOBACTER CALCOACETICUS CMX 669; assay: as above; settings: A. calcoaceticus CMX 669, unit assumed
[21] = tested on: PSEUDOMONAS AERUGINOSA DPHD-5263; assay: as above; settings: P. aeruginosa DPHD-5263, unit assumed
[22] = tested on: PSEUDOMONAS AERUGINOSA DPHD-2862; assay: as above; settings: P. aeruginosa DPHD-2862, unit assumed
CANDIDA ALBICANS CCH 442 = assay: as above; settings: C. albicans CCH 442, unit assumed
[23] = tested on: MYCOBACTERIUM SMEGMATIS ATCC 114; assay: as above; settings: M. smegmatis ATCC 114, unit assumed

Row | Structure (SMILES) | MIC [1] | MIC [2] | MIC [3] | MIC [4] | MIC [5] | MIC [6] | MIC [7] | MIC [8] | MIC (EN[…] ATCC 8043) | MIC (M[…] ATCC 4698) | MIC (M[…] ATCC 9341) | MIC (STR[…] 508) | MIC [9] | MIC [10] | MIC [11] | MIC [12] | MIC (ESCHERICHIA COLI JUHL) | MIC (ESCHERICHIA COLI SS) | MIC (ESCHERICHIA COLI DC-2) | MIC (ESCHERICHIA COLI H560) | also measured
1 | CCC1OC(=O)C(C)C(=O)C(C)C(OC2OC(C)CC(N(C)C)C2O)C(C)(OC)CC(C)C2=NC(CCOc3ccccc3)CN3C(=O)OC1(C)C3C2C (stereo not shown) [Example 91] | 0.78 µg/mL (≈ 1.03 µM) | 0.78 µg/mL (≈ 1.03 µM) | > 100 µg/mL | 0.78 µg/mL (≈ 1.03 µM) | 0.78 µg/mL (≈ 1.03 µM) | 0.78 µg/mL (≈ 1.03 µM) | > 100 µg/mL | 0.78 µg/mL (≈ 1.03 µM) | 0.1 µg/mL (≈ 0.132 µM) | 0.39 µg/mL (≈ 0.515 µM) | 0.1 µg/mL (≈ 0.132 µM) | 0.05 µg/mL (≈ 0.066 µM) | 0.01 µg/mL (≈ 0.0132 µM) | 0.05 µg/mL (≈ 0.066 µM) | 100 µg/mL (≈ 132 µM) | 0.39 µg/mL (≈ 0.515 µM) | > 100 µg/mL | 3.1 µg/mL (≈ 4.09 µM) | > 100 µg/mL | > 100 µg/mL | MIC (ESCHERICHIA COLI KNK 437): > 100 µg/mL; MIC [13]: > 100 µg/mL; MIC [14]: > 100 µg/mL; MIC [15]: > 100 µg/mL; MIC [16]: > 100 µg/mL; MIC [17]: > 100 µg/mL; MIC [18]: > 100 µg/mL; MIC [19]: 12.5 µg/mL (≈ 16.5 µM); MIC (PSEUDOMONAS CEPACIA 296I): > 100 µg/mL; MIC [20]: > 100 µg/mL; MIC [21]: > 100 µg/mL; MIC [22]: > 100 µg/mL; MIC (CANDIDA ALBICANS CCH 442): > 100 µg/mL; MIC [23]: 1.56 µg/mL (≈ 2.06 µM)
2 | CCC1OC(=O)C(C)C(=O)C(C)C(OC2OC(C)CC(N(C)C)C2O)C(C)(OC)CC(C)C2=NC(COCc3cc(OC)cc(OC)c3)CN3C(=O)OC1(C)C3C2C (stereo not shown) [Example 100] | 0.1 µg/mL (≈ 0.122 µM) | 0.1 µg/mL (≈ 0.122 µM) | > 100 µg/mL | 0.2 µg/mL (≈ 0.244 µM) | 0.05 µg/mL (≈ 0.0611 µM) | 0.1 µg/mL (≈ 0.122 µM) | > 100 µg/mL | 0.2 µg/mL (≈ 0.244 µM) | 0.01 µg/mL (≈ 0.0122 µM) | 0.1 µg/mL (≈ 0.122 µM) | < 0.005 µg/mL | 0.01 µg/mL (≈ 0.0122 µM) | 0.01 µg/mL (≈ 0.0122 µM) | 0.01 µg/mL (≈ 0.0122 µM) | 100 µg/mL (≈ 122 µM) | 0.2 µg/mL (≈ 0.244 µM) | > 100 µg/mL | 1.56 µg/mL (≈ 1.91 µM) | > 100 µg/mL | 50 µg/mL (≈ 61.1 µM) | MIC (ESCHERICHIA COLI KNK 437): > 100 µg/mL; MIC [13]: > 100 µg/mL; MIC [14]: > 100 µg/mL; MIC [15]: > 100 µg/mL; MIC [16]: > 100 µg/mL; MIC [17]: > 100 µg/mL; MIC [18]: > 100 µg/mL; MIC [19]: 1.56 µg/mL (≈ 1.91 µM); MIC (PSEUDOMONAS CEPACIA 296I): 100 µg/mL (≈ 122 µM); MIC [20]: 100 µg/mL (≈ 122 µM); MIC [21]: > 100 µg/mL; MIC [22]: > 100 µg/mL; MIC (CANDIDA ALBICANS CCH 442): > 100 µg/mL; MIC [23]: 0.78 µg/mL (≈ 0.954 µM)
3 | CC[C@H]1OC(=O)[C@H](C)C(=O)[C@H](C)[C@@H](O[C@@H]2O[C@H](C)C[C@H](N(C)C)[C@H]2O)[C@](C)(OC)C[C@@H](C)C2=N[C@H](COCc3ccc(F)cc3)CN3C(=O)O[C@@]1(C)[C@H]3[C@H]2C [Example 101] | 0.05 µg/mL (≈ 0.0644 µM) | 0.05 µg/mL (≈ 0.0644 µM) | > 100 µg/mL | 0.1 µg/mL (≈ 0.129 µM) | 0.05 µg/mL (≈ 0.0644 µM) | 0.05 µg/mL (≈ 0.0644 µM) | > 100 µg/mL | 0.1 µg/mL (≈ 0.129 µM) | ≤ 0.005 µg/mL | 0.02 µg/mL (≈ 0.0258 µM) | ≤ 0.005 µg/mL | ≤ 0.005 µg/mL | ≤ 0.005 µg/mL | ≤ 0.005 µg/mL | > 100 µg/mL | 0.05 µg/mL (≈ 0.0644 µM) | > 100 µg/mL | 0.2 µg/mL (≈ 0.258 µM) | > 100 µg/mL | 100 µg/mL (≈ 129 µM) | MIC (ESCHERICHIA COLI KNK 437): > 100 µg/mL; MIC [13]: > 100 µg/mL; MIC [14]: > 100 µg/mL; MIC [15]: > 100 µg/mL; MIC [16]: > 100 µg/mL; MIC [17]: > 100 µg/mL; MIC [18]: > 100 µg/mL; MIC [19]: 1.56 µg/mL (≈ 2.01 µM); MIC (PSEUDOMONAS CEPACIA 296I): 100 µg/mL (≈ 129 µM); MIC [20]: 100 µg/mL (≈ 129 µM); MIC [21]: > 100 µg/mL; MIC [22]: > 100 µg/mL; MIC (CANDIDA ALBICANS CCH 442): > 100 µg/mL; MIC [23]: 0.39 µg/mL (≈ 0.503 µM)
4 | CC[C@H]1OC(=O)[C@H](C)C(=O)[C@H](C)[C@@H](O[C@@H]2O[C@H](C)C[C@H](N(C)C)[C@H]2O)[C@](C)(OC)C[C@@H](C)C2=N[C@H](COCc3ccccc3Br)CN3C(=O)O[C@@]1(C)[C@H]3[C@H]2C [Example 104] | 0.05 µg/mL (≈ 0.0597 µM) | 0.05 µg/mL (≈ 0.0597 µM) | 100 µg/mL (≈ 119 µM) | 0.05 µg/mL (≈ 0.0597 µM) | 0.05 µg/mL (≈ 0.0597 µM) | 0.05 µg/mL (≈ 0.0597 µM) | 100 µg/mL (≈ 119 µM) | 0.05 µg/mL (≈ 0.0597 µM) | 0.01 µg/mL (≈ 0.0119 µM) | 0.1 µg/mL (≈ 0.119 µM) | 0.02 µg/mL (≈ 0.0239 µM) | 0.01 µg/mL (≈ 0.0119 µM) | 0.01 µg/mL (≈ 0.0119 µM) | 0.01 µg/mL (≈ 0.0119 µM) | 25 µg/mL (≈ 29.9 µM) | 0.05 µg/mL (≈ 0.0597 µM) | 100 µg/mL (≈ 119 µM) | 0.78 µg/mL (≈ 0.932 µM) | 100 µg/mL (≈ 119 µM) | 50 µg/mL (≈ 59.7 µM) | MIC (ESCHERICHIA COLI KNK 437): > 100 µg/mL; MIC [13]: > 100 µg/mL; MIC [14]: > 100 µg/mL; MIC [15]: > 100 µg/mL; MIC [16]: > 100 µg/mL; MIC [17]: > 100 µg/mL; MIC [18]: > 100 µg/mL; MIC [19]: 3.1 µg/mL (≈ 3.7 µM); MIC (PSEUDOMONAS CEPACIA 296I): 100 µg/mL (≈ 119 µM); MIC [20]: 100 µg/mL (≈ 119 µM); MIC [21]: > 100 µg/mL; MIC [22]: > 100 µg/mL; MIC (CANDIDA ALBICANS CCH 442): 100 µg/mL (≈ 119 µM); MIC [23]: 0.39 µg/mL (≈ 0.466 µM)
